The source of these data is ChEMBL document CHEMBL3639081, “Azabicyclo compound and salt thereof” (2014).

The target of this test is Heat shock protein HSP 90-alpha (Homo sapiens, UniProt P07900). The test is described as follows: AlphaScreen Competitive Assay: The HSP90-binding activity was measured by an AlphaScreen competitive assay system. The purified HSP90 solution was diluted with a binding buffer (50 mM Tris-HCl (pH 7.5), 150 mM NaCl, 0.1% Triton-X100, 1 mM DTT, 0.1% BSA) and added to a 384-well plate (No. 3673, Corning Incorporated) containing test substances. After reaction at room temperature for 2 hr, biotin-labeled geldanamycin was added to each reaction solution in an amount of 40 nM, followed by reaction for further 1 hr. Detection mix (20 mM HEPES-KOH (pH 7.5), 0.5% BSA, 0.04 mg/mL Nickel Chelate Acceptor beads, 0.04 mg/mL Streptavidin-coated Donor beads) (No. 6760619C, Perkin Elmer, Inc.) was added to each well in the same amount as that of the reaction solution. After reaction in a dark place at room temperature for 1 hr, the fluorescence intensity in each well was measured with a multilabel plate reader, EnVision (Perkin Elmer, Inc.). On the technique in general: Bead proximity is the source of the signal in Alpha formats.

As for `COc1cc(C(N)=O)ccc1-n1nc(C(C)C)c2c(-n3cnc(-c4cnn(C)c4)c3)ccnc21`, the IC50 worked out at 90 nM.

One may read the IC50 as the concentration at which inhibition is half-maximal.
